Test results reported in patent US20240374563A1, “ANTICHOLINERGIC COMPOUNDS FOR USE IN TREATING NEUROMUSCULAR DISORDERS” (UNIVERSITY OF MONTRÉAL, priority 2022, published 2024).

What was measured:
SOD1^G37R mice [1] = test: Motor neuron counts in lumbar spinal cord sections (ChAT/NeuN); type: in vivo, mouse; details: P520, treatment from disease onset, p<0.0001
Source text: We prepared lumbar spinal cords sections as previously described[6] and labeled MNs with the cholinergic neuronal marker ChAT and the general neuronal nuclei marker NeuN to identify α-MNs. Neurons positive for both markers located in the ventral horn were counted as α-MNs.
Motor neuron counts: Mouse were perfused transcardially and lumbar spinal cord were subsequently dissected, cryoprotected in a 30% sucrose solution and frozen using dry ice. Floating lumbar spinal cord cryosections were processed as previously described. Spinal cords cryosections were double stained against Choline Acetyl-Transferase (ChAT: 1:100; Goat; Millipore, Canada; AB144P) and the neuronal marker Neuronal Nuclei (NeuN; 1:300; Mouse IgG1; Millipore; MAB377). ChAT and NeuN positive cells were identified as α-MNs[4]. A minimin of twenty lumbar spinal cord sections per animal were analysed and double-positive cells from each ventral horns were quantified.

SOD1^G37R mice [2] = test: Gait analysis (footprint test); type: in vivo, mouse; details: P520; treatment from disease onset; N=8
Protocol: Finally, we aimed to better characterize the walking pattern of the mice following treatment. We measured the gait by performing a footprint analysis using inked paws.
Gait was assessed using the footprint test. Paws were inked with a nontoxic paint (fore-paws in blue and hind-paws in red), mice were placed on a restricted pathway on a white paper sheet (30 cm long, 6 cm wide) and free to walk along the walkway. Five footsteps from each run were measured for the following parameters (cm): (1) stride length ([…]) and (2) Step width (distance between left and right paws). The mean value of each set of outcomes was calculated for statistical analysis.

SOD1^G37R mice [3] = test: Survival cohort; details: continuous treatment from disease onset (P450) until end stage; N=10
SOD1^G37R mice [4] = test: Rotarod acceleration protocol; type: in vivo, mouse
Protocol: Third, the motor performance, balance and coordination, were measured using a standard acceleration protocol on the Rotarod (FIG. 8A), which is known to reveal ALS motor deficits as disease progresses.
Motor coordination, strength and balance were assessed using a rotarod (TSE Rotarod, TSE Systems Gmbh, Germany). Animals were placed onto a rotating wheel at a starting speed of 4 rpm, increasing to 40 rpm in 300 seconds. Mice had two attempts per session to remain on the rotarod during the acceleration protocol, and the longest latency to fall was counted.

SOD1^G37R mice [5] = test: Grip strength; type: in vivo, mouse; details: from P490 until the end of the trial; treatment from disease onset; N=19
Source text: Mice of the darifenacin and placebo groups began the trial with a similar grip strength force.
The pre-clinial trial design was made according to guidelines for preclinical animal research in ALS/MND [35]. Male mice from the SOD1^G37R background and their WT littermates were included in the preclinical study. Mice were randomly assigned to the experimental or the placebo group. Treatment, behavior monitoring, experiments and results analysis were done blindly. Standard ALS behavioral measurements were performed biweekly to measure disease progression in the various study groups. This includes rotarod test. grip strength measurements, weight measurements and tail suspension test to assess hindlimb extension reflex.

SOD1^G37R mice [6] = test: NMJ innervation status and NMJ repair signs by immunohistochemistry; type: in vivo, mouse
Protocol: We characterized EDL innervation status, a vulnerable fast-twitch muscle in ALS [3, 25-27], by classifying NMJs into fully innervated, partially innervated and denervated NMJs (FIG. 2A).
Neuromuscular innervation: Immunostaining was performed on EDL and SOL muscle previously described. Briefly, NMJs were labeled to visualise the axon terminal, Schwann cells and the post-synaptic receptors. The presynaptic element was labeled using an anti-synaptic vesicular protein 2 (SV2, 1:2000, Developmental Studies Hybridoma Bank) and an anti-neurofilament M, (NF-M, 1:1000, Rockland Immunochemicals Inc). PSCs and Schwann cells were labeled with anti-S100β antibody (1:4, Z0311, Dako) and post-synaptic receptors with Alexa594-conjugated-α-BTX (1.33 μg/ml, Molecular Probes, Fischer Scientific, Canada).
Observations and image acquisition were obtained using a Zeiss LSM 880 confocal microscope, with a 63× oil immersion objective (N.A. 1.4) or an Olympus FV 1000, with either a 63× oil immersion objective or a 20× water immersion objective (respectively N.A. 0.95 and 0.90). No image manipulations were performed after acquisition, except for brightness and contrast adjustments for figure presentation.

[7] = test system: PSC muscarinic receptors (mAChRs); details: SOD1 mice, 15 mg/kg for 30 days; SOL muscle
Source text: Mice were then sacrificed, and muscles dissected with their innervation and placed in a physiological recording chamber. We performed Ca^2+ imaging on the SOL muscle to evaluate PSCs synaptic detection of neurotransmission elicited by motor nerve stimulation (50 Hz-5 sec) or local applications of the mAChRs agonist muscarine for the treated and the placebo groups.
Preparations of SOL muscles and their innervation were dissected and pinned in a Sylgard-coated experimental chamber filled with an oxygenated Ree's solution (in mM, all Sigma), as follows: 110 NaCl, 5 KCl, 1 MgCl2, 25 NaHCO3, 2 CaCl2, 11 glucose, 0.3 glutamic acid, 0.4 glutamine, 5 BES (N,N-Bis(2-hydroxyethyl)-2-aminoethanesulfonic acid sodium salt), 0.036 choline chloride, and 4.34×10^−7 cocarboxylase. Nerve-muscle preparations were incubated for 90 min (2×45 min) in a preoxygenated saline solution containing 10 μM fluo-4AM (Invitrogen) and 0.02% pluronic acid (Invitrogen). After the loading, nerve muscle preparations were constantly perfused with a warm (26-28° C.) oxygenated Ree's solution (95% O2, 5% CO2). Basel level of fluorescence was always set within the same range of arbitrary units, using the same software and hardware settings. Changes in fluorescence were measured over PSC soma and expressed as follows: % ΔF/F=(F-Frest)/Frest×100. Experiments were discarded when focus drift occurred. […]

[8] = EDL, pre-onset treatment P400 until P480
[9] = EDL, treatment from disease onset (P450), 10 mg/kg orally, to P520
[10] = EDL, treatment from disease onset, 10 mg/kg orally

**Q.** With `NC(=O)C(c1ccccc1)(c1ccccc1)[C@@H]1CCN(CCc2ccc3c(c2)CCO3)C1` [darifenacin] as the molecule, how does the “α-MN count per ventral horn vs placebo” value (SOD1^G37R mice [1]) read?
**A.** The value was “significantly higher”.

**Q.** And the step width (SOD1^G37R mice [2])?
**A.** The step width was 2.62±0.16 cm.

**Q.** And the stride length (SOD1^G37R mice [2])?
**A.** The stride length was 4.13±0.36 cm.

**Q.** And the median lifespan (SOD1^G37R mice [3])?
**A.** Its median lifespan is 551 days.

**Q.** And the “Rotarod latency to fall vs placebo” value (SOD1^G37R mice [4]; at P520 and P525, treatment from disease onset, N=22)?
**A.** The value was “significantly higher score”.

**Q.** And the “share of group still able to stand for several seconds on the rotating rod” value (SOD1^G37R mice [4]; late symptomatic stage, data not shown)?
**A.** The value was “more than half”.

**Q.** And the “grip strength vs placebo” value (SOD1^G37R mice [5])?
**A.** Its value is “performed better”.

**Q.** What about the “animals in which glial process extensions were seen” value (SOD1^G37R mice [6]; [8]) of the same molecule?
**A.** Its value is 5 out of 6.

**Q.** What about the “percentage of denervated NMJs” value (SOD1^G37R mice [6]; [8]) of the same molecule?
**A.** Its value is 15.7±5.9%.

**Q.** And the “percentage of partially innervated NMJs” value (SOD1^G37R mice [6]; [8])?
**A.** The value was 33.9±5.1%.

**Q.** What about the “percentage of fully innervated NMJs” value (SOD1^G37R mice [6]; EDL, pre-onset treatment P400 until P480, N=6, n=145) of the same molecule?
**A.** The value was 50.4±9.2%.

**Q.** What about the “percentage of denervated NMJs” value (SOD1^G37R mice [6]; EDL, treatment from disease onset (P450), 10 mg/kg orally 5 days a week, to P520, N=7, n=293) of the same molecule?
**A.** The value was 5.6±1.8%.

**Q.** And the “percentage of fully innervated NMJs” value (SOD1^G37R mice [6]; [9])?
**A.** Its value is 70.1±4.2%.

**Q.** And the “percentage of partially innervated NMJs” value (SOD1^G37R mice [6]; [9])?
**A.** Its value is 24.2±4.0%.

**Q.** What about the “percentage of NMJs presenting nerve sprouting” value (SOD1^G37R mice [6]; [10]) of the same molecule?
**A.** Its value is 21.5±4.3%.

**Q.** What about the “percentage of NMJs with glial processes alone” value (SOD1^G37R mice [6]; [10]) of the same molecule?
**A.** Its value is 2.2±1.8%.

**Q.** What about the “percentage of NMJs with polyinnervation” value (SOD1^G37R mice [6]; [10]) of the same molecule?
**A.** Its value is 6.4±2.8.

**Q.** And the “NMJ repair signs (nerve sprouting, polyinnervation, glial processes) vs placebo” value (SOD1^G37R mice [6]; SOL and EDL, pre-onset treatment P400 until P480)?
**A.** Its value is “no evidence of significant difference”.

**Q.** And the “percentage of partially innervated NMJs” value (SOD1^G37R mice [6]; SOL, pre-onset treatment P400 until P480)?
**A.** Its value is 34.9±8.6%.

**Q.** What about the “percentage of fully innervated NMJs” value (SOD1^G37R mice [6]; SOL, pre-onset treatment P400 until P480, N=4, n=118) of the same molecule?
**A.** Its value is 60.5±8.2%.

**Q.** And the PSCs muscarinic activation [7]?
**A.** The PSCs muscarinic activation was “greatly abolished”.
